Consider two molecules from article PMC7002685, “Inhibition of vascular calcification by inositol phosphates derivatized with ethylene glycol oligomers” (Nature Communications, 2020).

For data set [1] the following is noted: uremic rats, 4 h i.v. infusion of 50 mg/kg; cited from earlier work.
For a further data set, the target named is T1, Transporter, GABA (Rattus norvegicus, UniProt P23978).
T1 construct: purchased Eurofins Panlabs Discovery Services Taiwan, Ltd
The experiment in a line: Off-target 226400. In kind it is binding. The protocol:
(§1) The potential off-target activity of 10 µM (OEG2)2-IP4 was assessed against a panel of 87 enzymes, receptors, or ion channels that are used in standard safety pharmacology screens.
(§2) 3.2. Off-target screening assay
(§3) The experiments were conducted by a contract research organization (Eurofins Panlabs Discovery Services Taiwan, Ltd.) and details on the respective assays can be retrieved via the catalog number provided in Supplementary Table 11 from the company’s webpage
(§4) (https://www.eurofinsdiscoveryservices.com/). […]
(§5) At sacrifice the left tibia of animals of the rat model with dietary adenine/high-phosphate-induced uremia and VC was collected, fixed with 70% v/v EtOH and embedded in methyl methacrylate. The trabecular bone compartment is known to be the most metabolic active i.e. actively re-structured bone compartment in CKD. Therefore, histomorphometric and micro-computed tomography (µCT) analysis of bone was performed on the trabecular compartment. Tibial sections were Goldner-stained for histomorphometric analysis of the proximal metaphysis using the AxioVision Release 4.5 software, as […]
(§6) described previously5. […]

Data set [2] in a line: In vitro ionized human serum calcium. In kind it is physicochemical. As to the method:
One potential side effect of inositol phosphate-based drugs is toxicity due to chelation of ionized serum calcium. […] At 100 µM (OEG2)2-IP4, 96 ± 2% of control serum-ionized calcium was measured.
To assess reduction in ionized serum calcium, increasing concentrations of test compounds were incubated in human serum (Human AB serum, off-the-clot, HSER-ABPM; LuBioScience GmbH, Zurich, Switzerland) at RT and free ionized calcium levels were measured subsequently by the o-cresolphthalein method using the calcium colorimetric assay.

Data set [3] has as its target T2, Glutamate, Metabotropic, mGlu5 (Homo sapiens, UniProt P41594).
T2 construct: purchased Eurofins Panlabs Discovery Services Taiwan, Ltd
The data set is described as follows: Off-target 237000. In kind it is binding. As to the method: as §1, §2, §3, §4, §5, §6

A further data set concerns the target T3, Progesterone PR-B (Homo sapiens, UniProt P06401).
T3 construct: purchased Eurofins Panlabs Discovery Services Taiwan, Ltd
The experiment in a line: Off-target 299005. In kind it is binding. As to the method: as §1, §2, §3, §4, §5, §6

Data set [4] has as its target T4, ATPase, Na+/K+, Heart, Pig (Sus scrofa, UniProt P05024).
T4 construct: purchased Eurofins Panlabs Discovery Services Taiwan, Ltd
The data set is described as follows: Off-target 107710. In kind it is biochemical. As to the method: as §1, §2
(§7) The experiments were conducted by a contract research organization (Eurofins Panlabs Discovery
(§8) Services Taiwan, Ltd.) and details on the respective assays can be retrieved via the catalog number
(§9) provided in Supplementary Table 11 from the company’s webpage
as §4

In data set [5] the test system is TNFα release from THP-1-derived macrophages. The data set is described as follows: TNFα in macrophage supernatants after CPP2 and compounds. In kind it is cell-based, human. As to conditions: for TNFα concentration in macrophage supernatants: 24 h, unit not given. As to the method:
Macrophage accumulation and inflammation coincide with the initial phase of calcification. To this end, VSMCs and THP-1-derived macrophages were exposed to CPP2-supplemented medium. CPP2 prepared from human serum as described previously[61] (Supplementary Figs. 6 and 7), induced a pronounced VSMC monolayer calcification after 48 h, which was decreased by (OEG2)2-IP4 in a dose-dependent fashion, and the effect became significant at 10 µM (Fig. 3e). […] Both H2O2 (proxy for oxidative stress) and tumor necrosis factor-alpha (TNF-α) (proxy for inflammatory response) levels were assayed in the VSMC culture supernatants subsequent to CPP2 treatment with and without compounds[30]. However, no increase in H2O2 nor TNF-α compared to control could be detected in either assay. For the CPP-induced VSMC calcification assay (Fig. 3e) a roughly 10-fold higher concentration of (OEG2)2-IP4 was necessary to achieve similar activity as in the CaP-induced VSMC calcification assay (Fig. 3b). […] In the CaP assay, low inhibitor concentration may be sufficient to inhibit crystal nucleation, whereas for the CPP assay higher inhibitor concentrations may be needed to achieve sufficient particle stabilization by chemisorption of inhibitor onto CPPs. Similar results have been reported for hydrogen sulfide in the context of VC[62],[64]. […] An increase in the TNFα levels in the cell culture supernatants was not observed for (OEG2)2-IP4 with (Fig. 3h) and without (Supplementary Fig. 10) combined CPP2 treatment.
THP-1 cells were plated at a density of 200,000 cells/well in a 24-well plate, differentiated as stated above, and subsequently treated with or without CPP2 (50 μg Ca/mL) in complete medium with or without test compounds (3, 10, 30, 100 μM) for 24 h at 37 °C, 5% CO2.
Human TNF-α was assayed in cell culture supernatants using commercial multiplex immunoassay kits (U-Plex of TNF-α (custom-made multiplex plate) and Human TNF- Kit (K151QWD-1), both from MesoScaleDiscovery, Rockville, MD, USA), and corrected for total protein content using the Micro BCA^TM Protein Assay Kit.

The next data set deals with Nicotinic Acetylcholine. The data set is described as follows: Off-target 258590. As to conditions: 10 µM. In kind it is binding, Human. As to the method:
as §1, §2, §3, §4, §5, §6

The nature of data set [6]: PK s.c. in rats with vitamin D and warfarin-induced VC. The settings on record: Sprague-Dawley, rat, plasma, sc, 50 mg/kg, 50 mg/kg s.c. In kind it is in vivo.
The next data set deals with T5, Cyclooxygenase COX-1 (Homo sapiens, UniProt P23219).
T5 construct: purchased Eurofins Panlabs Discovery Services Taiwan, Ltd
T5 sequence (P23219 24-599): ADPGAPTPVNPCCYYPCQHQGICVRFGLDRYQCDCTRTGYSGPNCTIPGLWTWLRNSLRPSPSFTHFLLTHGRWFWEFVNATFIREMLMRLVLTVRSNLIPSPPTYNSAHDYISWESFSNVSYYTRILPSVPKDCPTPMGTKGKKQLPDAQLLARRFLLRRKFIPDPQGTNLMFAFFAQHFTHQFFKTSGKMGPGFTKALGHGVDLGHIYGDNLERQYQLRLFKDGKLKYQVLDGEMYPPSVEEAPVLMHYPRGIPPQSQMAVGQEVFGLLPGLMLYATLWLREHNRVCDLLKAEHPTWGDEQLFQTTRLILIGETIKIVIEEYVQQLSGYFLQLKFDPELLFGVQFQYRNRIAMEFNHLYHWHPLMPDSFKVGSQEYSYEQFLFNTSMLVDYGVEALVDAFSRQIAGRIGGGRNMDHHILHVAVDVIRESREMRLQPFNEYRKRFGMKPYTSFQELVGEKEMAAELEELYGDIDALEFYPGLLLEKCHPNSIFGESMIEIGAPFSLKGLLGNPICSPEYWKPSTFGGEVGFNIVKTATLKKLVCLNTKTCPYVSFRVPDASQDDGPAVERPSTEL
The experiment in a line: Off-target 116020. In kind it is biochemical. The protocol: as §1, §2, §7, §8, §9, §4

The target in another data set is T6, Chemokine CXCR2 (IL-8RB) (Homo sapiens, UniProt P25025).
T6 construct: purchased Eurofins Panlabs Discovery Services Taiwan, Ltd
T6 sequence (P25025 whole entry): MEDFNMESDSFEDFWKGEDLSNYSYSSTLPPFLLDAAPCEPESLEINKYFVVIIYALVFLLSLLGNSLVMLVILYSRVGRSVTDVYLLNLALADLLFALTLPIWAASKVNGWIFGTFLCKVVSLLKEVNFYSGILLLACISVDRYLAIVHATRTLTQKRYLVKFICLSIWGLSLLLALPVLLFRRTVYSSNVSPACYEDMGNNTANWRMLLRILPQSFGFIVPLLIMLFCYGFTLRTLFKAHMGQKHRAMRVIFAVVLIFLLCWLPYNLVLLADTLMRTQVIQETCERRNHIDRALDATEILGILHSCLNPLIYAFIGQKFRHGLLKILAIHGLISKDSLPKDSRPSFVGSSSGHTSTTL
The data set is described as follows: Off-target 244500. In kind it is binding. The protocol: as §1, §2, §3, §4, §5, §6

The target of the next data set is T7, Bradykinin B2 (Homo sapiens, UniProt P30411).
T7 construct: purchased Eurofins Panlabs Discovery Services Taiwan, Ltd
T7 sequence (P30411 whole entry): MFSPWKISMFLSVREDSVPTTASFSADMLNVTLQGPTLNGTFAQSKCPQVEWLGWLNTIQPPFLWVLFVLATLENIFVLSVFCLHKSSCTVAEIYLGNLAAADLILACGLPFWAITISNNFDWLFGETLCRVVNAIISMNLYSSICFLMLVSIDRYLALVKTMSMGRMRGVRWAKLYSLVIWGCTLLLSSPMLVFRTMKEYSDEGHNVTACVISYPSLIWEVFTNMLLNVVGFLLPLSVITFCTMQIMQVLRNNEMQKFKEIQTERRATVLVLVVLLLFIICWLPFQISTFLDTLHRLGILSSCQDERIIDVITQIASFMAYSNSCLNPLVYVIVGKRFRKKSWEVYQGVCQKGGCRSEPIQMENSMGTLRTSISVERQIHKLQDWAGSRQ
The experiment in a line: Off-target 212320. In kind it is binding. As to the method: as §1, §2, §3, §4, §5, §6

The target of data set [7] is T8, Leukotriene, Cysteinyl CysLT1 (Homo sapiens, UniProt Q9Y271).
T8 construct: purchased Eurofins Panlabs Discovery Services Taiwan, Ltd
T8 sequence (Q9Y271 whole entry): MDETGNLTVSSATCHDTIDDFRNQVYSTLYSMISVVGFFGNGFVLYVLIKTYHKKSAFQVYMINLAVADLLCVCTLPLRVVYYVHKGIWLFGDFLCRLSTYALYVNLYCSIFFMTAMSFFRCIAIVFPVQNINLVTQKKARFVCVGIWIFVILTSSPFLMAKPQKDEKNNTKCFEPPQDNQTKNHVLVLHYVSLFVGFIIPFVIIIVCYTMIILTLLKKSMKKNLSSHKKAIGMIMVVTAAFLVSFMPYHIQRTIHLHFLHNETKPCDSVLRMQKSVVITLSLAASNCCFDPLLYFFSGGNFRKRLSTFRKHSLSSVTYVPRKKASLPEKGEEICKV
The data set is described as follows: Off-target 250460. In kind it is binding. As to the method: as §1, §2, §7, §8, §9, §4

Data set [8] has as its system Glutamate, NMDA, Phencyclidine. The experiment in a line: Off-target 233000. In kind it is binding, Rat. The settings on record: 10 µM. The protocol: as §1, §2, §3, §4, §5, §6

“And” between values parts separate entries of the source, which are not always exact repeats. Equal entries are not always repeated. Some results are limits rather than exact numbers.

T3 sequence (P06401 whole entry): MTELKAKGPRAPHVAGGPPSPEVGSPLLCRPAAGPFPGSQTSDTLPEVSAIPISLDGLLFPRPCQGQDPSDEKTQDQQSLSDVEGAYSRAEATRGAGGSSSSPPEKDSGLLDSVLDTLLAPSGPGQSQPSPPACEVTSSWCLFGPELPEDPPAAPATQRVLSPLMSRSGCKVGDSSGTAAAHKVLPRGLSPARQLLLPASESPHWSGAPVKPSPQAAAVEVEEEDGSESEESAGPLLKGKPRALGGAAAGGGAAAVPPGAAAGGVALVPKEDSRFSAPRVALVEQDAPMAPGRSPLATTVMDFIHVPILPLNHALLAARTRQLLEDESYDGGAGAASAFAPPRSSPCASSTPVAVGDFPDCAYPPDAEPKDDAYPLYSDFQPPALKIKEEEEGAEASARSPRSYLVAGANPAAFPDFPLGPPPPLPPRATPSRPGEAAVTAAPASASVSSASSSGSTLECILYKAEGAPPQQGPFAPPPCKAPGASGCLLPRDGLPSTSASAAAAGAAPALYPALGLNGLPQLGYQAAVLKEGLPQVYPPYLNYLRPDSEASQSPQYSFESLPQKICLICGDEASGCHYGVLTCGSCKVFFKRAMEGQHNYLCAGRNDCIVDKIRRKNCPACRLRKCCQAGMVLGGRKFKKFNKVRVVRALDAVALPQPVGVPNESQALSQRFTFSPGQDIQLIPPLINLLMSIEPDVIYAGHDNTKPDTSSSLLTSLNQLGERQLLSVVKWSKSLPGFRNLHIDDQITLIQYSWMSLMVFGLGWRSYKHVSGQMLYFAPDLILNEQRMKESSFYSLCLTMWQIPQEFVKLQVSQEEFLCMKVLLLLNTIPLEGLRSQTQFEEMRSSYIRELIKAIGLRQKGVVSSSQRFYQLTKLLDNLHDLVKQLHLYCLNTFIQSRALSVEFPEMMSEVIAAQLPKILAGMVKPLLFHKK
T2 sequence (P41594 21-1212): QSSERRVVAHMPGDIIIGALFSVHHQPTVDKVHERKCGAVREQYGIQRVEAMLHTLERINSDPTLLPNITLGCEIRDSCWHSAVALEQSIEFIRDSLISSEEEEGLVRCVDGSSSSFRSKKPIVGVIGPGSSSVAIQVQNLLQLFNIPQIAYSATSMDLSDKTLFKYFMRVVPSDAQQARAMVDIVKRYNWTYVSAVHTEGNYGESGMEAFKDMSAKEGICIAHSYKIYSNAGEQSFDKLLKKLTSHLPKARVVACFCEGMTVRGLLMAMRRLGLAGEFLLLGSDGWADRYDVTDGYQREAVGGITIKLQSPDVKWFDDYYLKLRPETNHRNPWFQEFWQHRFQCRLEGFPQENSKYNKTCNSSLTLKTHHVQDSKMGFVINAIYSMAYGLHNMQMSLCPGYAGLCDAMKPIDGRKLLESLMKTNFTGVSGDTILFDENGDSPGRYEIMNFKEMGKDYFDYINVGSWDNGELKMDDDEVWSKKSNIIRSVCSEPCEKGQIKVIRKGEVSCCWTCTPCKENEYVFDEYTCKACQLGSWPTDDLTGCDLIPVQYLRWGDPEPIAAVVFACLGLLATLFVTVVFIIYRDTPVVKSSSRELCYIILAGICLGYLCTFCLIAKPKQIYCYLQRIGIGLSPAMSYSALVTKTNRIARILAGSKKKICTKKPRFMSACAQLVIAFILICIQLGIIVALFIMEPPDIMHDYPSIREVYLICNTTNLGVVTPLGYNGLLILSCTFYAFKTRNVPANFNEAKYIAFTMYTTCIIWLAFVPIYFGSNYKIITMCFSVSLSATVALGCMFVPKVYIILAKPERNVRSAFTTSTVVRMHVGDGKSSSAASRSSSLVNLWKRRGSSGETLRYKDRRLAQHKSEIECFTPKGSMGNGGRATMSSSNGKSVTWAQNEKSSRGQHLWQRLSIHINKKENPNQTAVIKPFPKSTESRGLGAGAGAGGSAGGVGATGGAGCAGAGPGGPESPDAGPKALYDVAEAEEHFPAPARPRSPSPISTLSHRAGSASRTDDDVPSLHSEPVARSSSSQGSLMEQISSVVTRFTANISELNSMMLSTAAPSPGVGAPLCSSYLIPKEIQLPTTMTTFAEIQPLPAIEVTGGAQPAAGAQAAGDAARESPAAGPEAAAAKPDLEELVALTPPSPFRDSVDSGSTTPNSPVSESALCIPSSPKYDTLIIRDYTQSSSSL

In the case of `O=P(O)(O)O[C@H]1[C@H](OP(=O)(O)O)[C@@H](OP(=O)(O)O)[C@H](OP(=O)(O)O)[C@@H](OP(=O)(O)O)[C@H]1OP(=O)(O)O` [IP6, myo-Inositol hexakisphosphate], the “reduction in serum calcium levels” value in data set [1] was 17%.
One may read the inhibition as the change of the read-out against control, counted positive when it falls. What is called % Inhibition is the drop in the measured response relative to a control, in per cent. Usually AUC(0-inf) stands for total exposure, with the tail of the curve extrapolated. Low values mean low exposure, high ones high exposure. Usually CL/F stands for the apparent clearance, not corrected for the fraction that reaches the circulation. The term Cmax denotes the peak of the concentration-time curve. In general, half-life refers to the time in which the quantity being followed falls by half. Regarding `COCCOCCO[C@@H]1[C@@H](OP(=O)(O)O)[C@H](OCCOCCOC)[C@@H](OP(=O)(O)O)[C@@H](OP(=O)(O)O)[C@H]1OP(=O)(O)O` [(OEG2)2-IP4, 4,6-Di-O-(methoxy-diethyleneglycol)-myo-inositol-1,2,3,5-tetrakis(phosphate)], the inhibition at 10 µM against Transporter, GABA is 4%; in data set [3], 24%; against Progesterone PR-B, -4%; in data set [4] it was 6%; against Cyclooxygenase COX-1, -2%; against Chemokine CXCR2 (IL-8RB) it was 6%. For the same molecule, the inhibition at 10 µM against Bradykinin B2 was -17%; in data set [7], 0%. Also, in data set [2], the “concentration from which difference to IP6 in decrease of serum-ionized calcium became significant” value is listed as at least 600 µM. Besides, the “TNFα concentration in macrophage supernatants” value in [5] (3 µM + CPP2 50 µg Ca/mL, replicates Fig. 3h) is 169.13 and 90.77 and 60.49; in data set [5] (10 µM + CPP2 50 µg Ca/mL) it was 111.79 and 105.92 and 63.72; in data set [5] (30 µM + CPP2 50 µg Ca/mL), 131.34 and 98.11 and 72.68. The “increase in TNFα levels in supernatants” value in data set [5] (with combined CPP2 treatment) is on record as “not observed”. Further, the “% Inhibition” value is reported as -5% in the data set with Nicotinic Acetylcholine and 7% in [8]. Besides, in data set [6] (Healthy), the AUC(0-inf) is 101 µM·h. The molecule further showed a CL/F in data set [6] (Healthy) of 11 ± 1 mL/min/kg. Further, the Cmax in data set [6] (Healthy) worked out at 49 ± 7 µM. In addition, in [6] (Healthy (before induction of calcification)), the half-life worked out at 3.92 ± 0.267 h. The AUC(0-t) in data set [6] (Healthy, read-out: AUC0-1440 (converted)) is 101 µM·h. Moreover, the MRT last in [6] (Healthy, read-out: MRT0-1440 (converted)) is 2.27 h.
